We go through two compounds from BindingDB's records for doi:10.1021/jm200288r (National Institute On Drug Abuse-Intramural Research Program, 2011).

Each structure is given as a SMILES string.

A short description of the assay: Antagonist activity at human dopamine D2 receptor expressed in CHOp cells assessed as inhibition of quinpirole-induced mitogenesis.

As for `COc1ccc2oc(C(=O)NCCC(F)CN3CCN(c4cccc(Cl)c4Cl)CC3)cc2c1` (configuration not stated) [N-(4-(4-(2,3-Dichlorophenyl)piperazin-1-yl)-3-fluorobutyl)-5-methoxybenzofuran-2-carboxamide], the IC50 was 1600 nM.
Regarding `COc1ccccc1N1CCN(CC(F)CCNC(=O)c2cc3ccccc3s2)CC1` (configuration not stated) [N-(3-Fluoro-4-(4-(2-methoxyphenyl)piperazin-1-yl)butyl)-benzo[b]thiophene-2-carboxamide], the IC50 is 421 nM.

What is called IC50 is the concentration needed to halve the response being measured.
